Here are results for three compounds from patent US20050020557A1, “Method for treating diseases using HSP90-inhibiting agents in combination with enzyme inhibitors” (Kosan Biosciences, Inc., priority 2003, published 2005).

Structures are written as SMILES.

The conditions of data set [1]: clinical trials; twice-weekly regimen; sole agent; cited from earlier work.
Data set [2] relates to ErbB2 protein. Put plainly: ErbB2 protein expression in SKBr3 cells. The data set is classed as cell-based, human.
Data set [3] deals with ErbB2 protein. Put plainly: ErbB2 protein expression in glioma cells. Format: cell-based.
The subject of data set [4] is SKBr-3 cells (human breast cancer cells). Put plainly: Cell viability (MTS) drug combination assay, combination index by median effect analysis, SKBr-3 cells. Format: cell-based. The settings on record: combination of enzyme inhibitor with 17-AAG, CI<1 synergism, CI=1 additivity, CI>1 antagonism; for CI value, 17-AAG Pre-Administration: 17-AAG 24 h before enzyme inhibitor (48 h); for CI value, 17-AAG Post-Administration: enzyme inhibitor 24 h, then 17-AAG for 48 h. The procedure:
Human colon adenocarcinoma cell line, DLD-1, and human breast adenocarcinoma cell line, SKBr-3, were obtained from American Type Culture Collection (manassas, Va.). […] Other cytotoxic agents were purchased commercially from suppliers such as Sigma Chemical Co. (St. Louis, Mo.) and Sequoia Research Products (Oxford, UK). Cells were seeded in duplicate in 96-well microtiter plates at a density of 5,000 cells per well and allowed to attach overnight. […] Cell viability was determined using the MTS assay (Promega). […] Based on the IC50 values of each individual drug, combined drug treatment was designed at constant ratios of two drugs, i.e., equivalent to the ratio of their IC50. Two treatment schedules were used: In one schedule, the cells were exposed to 24 hours of 17-AAG or 17-DMAG. The drug was then added to the cells and incubated for 48 hours. […] Cell viability was determined by the MTS assay. Synergism, additivity or antagonism was determined by median effect analysis using the combination index (CI) calculated using Calcusyn (Biosoft, Cambridge, UK). […] The “enhancing” effect of two drugs can also be determined.

The subject of data set [5] is DLD-1 cells (human colorectal cancer cells). As to the kind of experiment: Cell viability (MTS) drug combination assay, combination index by median effect analysis, DLD-1 cells. The data set is classed as cell-based. The settings on record: combination of enzyme inhibitor with 17-AAG, CI<1 synergism, CI=1 additivity, CI>1 antagonism. The protocol:
Human colon adenocarcinoma cell line, DLD-1, and human breast adenocarcinoma cell line, SKBr-3, were obtained from American Type Culture Collection (manassas, Va.). […] 17-DMAG and 17-AAG were obtained using published procedures. Other cytotoxic agents were purchased commercially from suppliers such as Sigma Chemical Co. (St. Louis, Mo.) and Sequoia Research Products (Oxford, UK).
Cells were seeded in duplicate in 96-well microtiter plates at a density of 5,000 cells per well and allowed to attach overnight. […] Cell viability was determined using the MTS assay (Promega). For the drug combination assay, cells were seeded in duplicate in 96-well plates (5,000 cells/well). […] Based on the IC50 values of each individual drug, combined drug treatment was designed at constant ratios of two drugs, i.e., equivalent to the ratio of their IC50. Two treatment schedules were used: In one schedule, the cells were exposed to 24 hours of 17-AAG or 17-DMAG. The drug was then added to the cells and incubated for 48 hours. […] Cell viability was determined by the MTS assay.
Synergism, additivity or antagonism was determined by median effect analysis using the combination index (CI) calculated using Calcusyn (Biosoft, Cambridge, UK). […] The “enhancing” effect of two drugs can also be determined.

For the compound `C=CCNC1=C2C[C@@H](C)C[C@H](OC)[C@H](O)[C@@H](C)/C=C(\C)[C@H](OC(N)=O)[C@@H](OC)/C=C\C=C(/C)C(=O)NC(=CC1=O)C2=O` [17-AAG, 17-(allylamino)-17-desmethoxygeldanamycin], the “MTD (maximum tolerated dose)” value in data set [1] was “about 220 mg/m2”. The “expression of ErbB2 protein” value with ErbB2 protein [2] and with ErbB2 protein [3] was “reduced the expression of ErbB2 protein” each time.
As to `COc1cc2ncnc(Nc3ccc(F)c(Cl)c3)c2cc1OCCCN1CCOCC1` [Iressa], the “CI value, 17-AAG Pre-Administration” value in data set [4] came to 0.77 ± 0.29; in data set [5] (17-AAG 24 h before enzyme inhibitor (48 h)) it was 0.76 ± 0.37. In addition, the “CI value, 17-AAG Post-Administration” value in data set [4] is listed as 0.67 ± 0.02; in data set [5] (enzyme inhibitor 24 h, then 17-AAG for 48 h), 0.41 ± 0.01.
With `CC(/C=C/C(=O)NO)=C\[C@@H](C)C(=O)c1ccc(N(C)C)cc1` [Trichostatin A], in data set [4], the “CI value, 17-AAG Pre-Administration” value was found to be 1.16 ± 0.02 and the “CI value, 17-AAG Post-Administration” value came to 0.91 ± 0.007.
